In the OligoGym collection:
HELM strings list units from the 5' end as sugar, base in round brackets, then linkage (d deoxyribose, r ribose, m 2'-O-methyl, p phosphodiester). Strings are as the collection lists them, not checked against the first reports. ss, as = sense and antisense strand; [fl2r] = 2'-fluoro

Details: siRNA
Also: test system not given here.

Substance	target mRNA knockdown
RNA1{r(G)p.r(A)p.r(G)p.r(G)p.r(A)p.r(A)p.r(G)p.r(A)p.m(U)p.r(G)p.r(A)p.r(G)p.r(U)p.r(U)p.r(G)p.r(U)p.r(A)p.r(C)p.r(C)p.r(T)p.r(T)}|RNA2{r(G)p.r(G)p.r(U)p.r(A)p.m(C)p.r(A)p.r(A)p.r(C)p.r(U)p.m(C)p.r(A)p.r(U)p.r(C)p.r(U)p.r(U)p.r(C)p.r(C)p.r(U)p.r(C)p.r(T)p.r(T)}$$$RNA1{StrandType:ss}|RNA2{StrandType:as}$	77%
RNA1{r(G)p.r(A)p.r(G)p.r(G)p.r(A)p.r(U)p.r(G)p.r(G)p.r(A)p.r(U)p.r(U)p.r(C)p.r(G)p.r(A)p.r(C)p.r(U)p.r(U)p.r(A)p.r(G)p.r(T)p.r(T)}|RNA2{r(C)p.m(U)p.r(A)p.r(A)p.r(G)p.r(U)p.r(C)p.r(G)p.r(A)p.r(A)p.r(U)p.r(C)p.r(C)p.r(A)p.r(U)p.r(C)p.r(C)p.r(U)p.r(C)p.r(T)p.r(T)}$$$RNA1{StrandType:ss}|RNA2{StrandType:as}$	94%
RNA1{r(G)p.r(A)p.r(U)p.r(A)p.r(G)p.r(G)p.r(A)p.r(A)p.r(G)p.r(G)p.r(G)p.r(G)p.r(C)p.r(U)p.r(U)p.r(C)p.r(A)p.r(G)p.r(C)p.r(T)p.r(T)}|RNA2{r(G)p.m(C)p.m(U)p.r(G)p.r(A)p.r(A)p.r(G)p.m(C)p.m(C)p.m(C)p.m(C)p.m(U)p.m(U)p.m(C)p.m(C)p.m(U)p.r(A)p.m(U)p.m(C)p.r(T)p.r(T)}$$$RNA1{StrandType:ss}|RNA2{StrandType:as}$	12%
RNA1{r(G)p.r(A)p.r(U)p.r(U)p.r(C)p.m(C)p.r(A)p.r(A)p.r(A)p.r(C)p.r(C)p.r(C)p.r(C)p.r(A)p.r(C)p.m(U)p.r(A)p.r(U)p.r(C)p.r(T)p.r(T)}|RNA2{r(G)p.r(A)p.r(U)p.r(A)p.r(G)p.r(U)p.r(G)p.r(G)p.r(G)p.r(G)p.r(U)p.r(U)p.r(U)p.r(G)p.r(G)p.r(A)p.r(A)p.r(U)p.r(C)p.r(T)p.r(T)}$$$RNA1{StrandType:ss}|RNA2{StrandType:as}$	67%
RNA1{r(G)p.r(A)p.r(U)p.r(U)p.r(C)p.r(C)p.r(A)p.r(A)p.r(A)p.r(C)p.r(C)p.r(C)p.r(C)p.r(A)p.r(C)p.m(U)p.r(A)p.r(U)p.r(C)p.r(T)p.r(T)}|RNA2{r(G)p.r(A)p.r(U)p.m(A)p.r(G)p.r(U)p.r(G)p.r(G)p.r(G)p.r(G)p.r(U)p.r(U)p.r(U)p.r(G)p.r(G)p.r(A)p.r(A)p.r(U)p.r(C)p.r(T)p.r(T)}$$$RNA1{StrandType:ss}|RNA2{StrandType:as}$	69%
RNA1{r(G)p.r(C)p.[fl2r](U)p.r(A)p.r(C)p.r(C)p.r(G)p.[fl2r](C)p.r(A)p.r(A)p.r(C)p.[fl2r](C)p.r(A)p.r(C)p.r(G)p.r(A)p.r(G)p.r(C)p.r(U)p.r(T)p.r(T)}|RNA2{r(A)p.r(G)p.r(C)p.r(U)p.r(C)p.r(G)p.[fl2r](U)p.r(G)p.r(G)p.r(U)p.[fl2r](U)p.r(G)p.r(C)p.r(G)p.r(G)p.[fl2r](U)p.r(A)p.r(G)p.r(C)p.r(T)p.r(T)}$$$RNA1{StrandType:ss}|RNA2{StrandType:as}$	42%
RNA1{r(G)p.r(C)p.[fl2r](U)p.r(A)p.r(C)p.r(C)p.r(G)p.r(C)p.r(A)p.r(A)p.r(C)p.r(C)p.r(A)p.r(C)p.r(G)p.r(A)p.r(G)p.r(C)p.r(U)p.r(T)p.r(T)}|RNA2{r(A)p.r(G)p.r(C)p.r(U)p.r(C)p.r(G)p.r(U)p.r(G)p.r(G)p.r(U)p.r(U)p.r(G)p.r(C)p.r(G)p.r(G)p.[fl2r](U)p.r(A)p.r(G)p.r(C)p.r(T)p.r(T)}$$$RNA1{StrandType:ss}|RNA2{StrandType:as}$	45%
RNA1{r(G)p.r(C)p.[fl2r](U)p.r(G)p.[fl2r](U)p.r(A)p.r(A)p.r(C)p.r(C)p.r(U)p.r(C)p.r(G)p.r(G)p.r(A)p.r(G)p.r(A)p.r(G)p.r(U)p.r(U)p.r(T)p.r(T)}|RNA2{r(A)p.r(A)p.r(C)p.r(U)p.r(C)p.r(U)p.r(C)p.r(C)p.r(G)p.r(A)p.r(G)p.r(G)p.r(U)p.[fl2r](U)p.r(A)p.[fl2r](C)p.r(A)p.r(G)p.r(C)p.r(T)p.r(T)}$$$RNA1{StrandType:ss}|RNA2{StrandType:as}$	62%
RNA1{r(G)p.r(C)p.[fl2r](U)p.r(G)p.r(A)p.r(A)p.r(C)p.[fl2r](U)p.r(A)p.r(G)p.r(U)p.r(C)p.r(G)p.r(A)p.r(A)p.r(A)p.r(G)p.r(A)p.r(A)p.r(T)p.r(T)}|RNA2{r(U)p.r(U)p.r(C)p.r(U)p.r(U)p.r(U)p.r(C)p.r(G)p.r(A)p.r(C)p.[fl2r](U)p.r(A)p.r(G)p.r(U)p.r(U)p.[fl2r](C)p.r(A)p.r(G)p.r(C)p.r(T)p.r(T)}$$$RNA1{StrandType:ss}|RNA2{StrandType:as}$	78%
RNA1{r(G)p.r(C)p.m(U)p.r(G)p.r(A)p.r(G)p.r(G)p.r(A)p.r(A)p.r(A)p.r(G)p.r(G)p.m(G)p.r(A)p.m(C)p.r(A)p.r(U)p.r(C)p.r(U)p.r(T)p.r(T)}|RNA2{r(A)p.r(G)p.r(A)p.m(U)p.r(G)p.r(U)p.r(C)p.r(C)p.r(C)p.r(U)p.r(U)p.r(U)p.r(C)p.r(C)p.r(U)p.m(C)p.r(A)p.r(G)p.r(C)p.r(T)p.r(T)}$$$RNA1{StrandType:ss}|RNA2{StrandType:as}$	76%
RNA1{r(G)p.r(C)p.r(A)p.r(A)p.r(C)p.r(U)p.r(C)p.r(A)p.r(U)p.r(G)p.r(G)p.r(U)p.r(U)p.r(C)p.r(A)p.r(U)p.r(G)p.r(C)p.r(U)p.r(T)p.r(T)}|RNA2{r(A)p.r(G)p.r(C)p.r(A)p.r(U)p.r(G)p.r(A)p.r(A)p.r(C)p.r(C)p.r(A)p.r(U)p.r(G)p.r(A)p.r(G)p.r(U)p.r(U)p.r(G)p.r(C)p.d(T)p.d(T)}$$$RNA1{StrandType:ss}|RNA2{StrandType:as}$	40%
RNA1{r(G)p.r(C)p.r(A)p.r(A)p.r(G)p.r(U)p.r(G)p.r(G)p.r(C)p.r(A)p.r(A)p.r(G)p.r(A)p.r(G)p.r(G)p.r(A)p.r(U)p.m(U)p.r(A)p.r(T)p.r(T)}|RNA2{m(U)p.r(A)p.r(A)p.r(U)p.r(C)p.r(C)p.r(U)p.r(C)p.r(U)p.r(U)p.r(G)p.r(C)p.r(C)p.r(A)p.r(C)p.r(U)p.r(U)p.r(G)p.r(C)p.r(T)p.r(T)}$$$RNA1{StrandType:ss}|RNA2{StrandType:as}$	69%
RNA1{r(G)p.r(C)p.r(A)p.r(G)p.r(C)p.r(A)p.r(C)p.r(G)p.r(A)p.r(C)p.r(U)p.r(U)p.r(C)p.r(U)p.r(U)p.r(C)p.r(A)p.r(A)p.r(G)p.r(T)p.r(T)}|RNA2{[fl2r](C)p.[fl2r](U)p.[fl2r](U)p.r(G)p.r(A)p.r(A)p.r(G)p.r(A)p.r(A)p.r(G)p.[fl2r](U)p.[fl2r](C)p.r(G)p.[fl2r](U)p.r(G)p.[fl2r](C)p.[fl2r](U)p.r(G)p.[fl2r](C)p.r(T)p.r(T)}$$$RNA1{StrandType:ss}|RNA2{StrandType:as}$	83%
RNA1{r(G)p.r(C)p.r(A)p.r(G)p.r(C)p.r(A)p.r(C)p.r(G)p.r(A)p.r(C)p.r(U)p.r(U)p.r(C)p.r(U)p.r(U)p.r(C)p.r(A)p.r(A)p.r(G)p.r(T)p.r(T)}|RNA2{d(C)p.d(U)p.d(U)p.d(G)p.d(A)p.d(A)p.d(G)p.d(A)p.d(A)p.d(G)p.d(U)p.d(C)p.d(G)p.d(U)p.d(G)p.d(C)p.d(U)p.d(G)p.d(C)p.r(T)p.r(T)}$$$RNA1{StrandType:ss}|RNA2{StrandType:as}$	0%
RNA1{r(G)p.r(C)p.r(A)p.r(G)p.r(C)p.r(A)p.r(C)p.r(G)p.r(A)p.r(C)p.r(U)p.r(U)p.r(C)p.r(U)p.r(U)p.r(C)p.r(A)p.r(A)p.r(G)p.r(T)p.r(T)}|RNA2{m(C)p.m(U)p.m(U)p.m(G)p.m(A)p.m(A)p.m(G)p.m(A)p.m(A)p.m(G)p.m(U)p.m(C)p.m(G)p.m(U)p.m(G)p.m(C)p.m(U)p.m(G)p.m(C)p.r(T)p.r(T)}$$$RNA1{StrandType:ss}|RNA2{StrandType:as}$	16%
RNA1{r(G)p.r(C)p.r(A)p.r(G)p.r(C)p.r(A)p.r(C)p.r(G)p.r(A)p.r(C)p.r(U)p.r(U)p.r(C)p.r(U)p.r(U)p.r(C)p.r(A)p.r(A)p.r(G)p.r(U)p.r(U)}|RNA2{r(C)p.[fl2r](U)p.r(U)p.r(G)p.r(A)p.r(A)p.r(G)p.r(A)p.r(A)p.r(G)p.r(U)p.r(C)p.r(G)p.r(U)p.r(G)p.r(C)p.r(U)p.r(G)p.r(C)p.r(U)p.r(U)}$$$RNA1{StrandType:ss}|RNA2{StrandType:as}$	73.8%
RNA1{r(G)p.r(C)p.r(A)p.r(G)p.r(C)p.r(A)p.r(C)p.r(G)p.r(A)p.r(C)p.r(U)p.r(U)p.r(C)p.r(U)p.r(U)p.r(C)p.r(A)p.r(A)p.r(G)p.r(U)p.r(U)}|RNA2{r(C)p.m(U)p.r(U)p.r(G)p.r(A)p.r(A)p.r(G)p.r(A)p.r(A)p.r(G)p.r(U)p.r(C)p.r(G)p.r(U)p.r(G)p.r(C)p.r(U)p.r(G)p.r(C)p.r(U)p.r(U)}$$$RNA1{StrandType:ss}|RNA2{StrandType:as}$	71.7%
RNA1{r(G)p.r(C)p.r(C)p.r(U)p.[fl2r](C)p.r(U)p.r(C)p.[fl2r](U)p.r(A)p.r(U)p.r(C)p.r(C)p.r(U)p.[fl2r](U)p.r(A)p.r(G)p.r(C)p.r(U)p.r(U)p.r(T)p.r(T)}|RNA2{r(A)p.r(A)p.r(G)p.r(C)p.[fl2r](U)p.r(A)p.r(A)p.r(G)p.r(G)p.r(A)p.[fl2r](U)p.r(A)p.r(G)p.r(A)p.r(G)p.r(A)p.r(G)p.r(G)p.r(C)p.r(T)p.r(T)}$$$RNA1{StrandType:ss}|RNA2{StrandType:as}$	47%
RNA1{r(G)p.r(C)p.r(C)p.r(U)p.r(C)p.r(U)p.r(C)p.r(U)p.r(A)p.r(U)p.r(C)p.r(C)p.r(U)p.r(U)p.r(A)p.r(G)p.r(C)p.r(U)p.r(U)p.r(T)p.r(T)}|RNA2{r(A)p.r(A)p.r(G)p.r(C)p.[fl2r](U)p.r(A)p.r(A)p.r(G)p.r(G)p.r(A)p.[fl2r](U)p.r(A)p.r(G)p.r(A)p.r(G)p.r(A)p.r(G)p.r(G)p.r(C)p.r(T)p.r(T)}$$$RNA1{StrandType:ss}|RNA2{StrandType:as}$	48%
RNA1{r(G)p.r(C)p.r(G)p.r(A)p.r(G)p.m(C)p.r(A)p.r(G)p.r(A)p.r(G)p.r(A)p.r(A)p.r(U)p.r(C)p.m(U)p.r(A)p.r(C)p.r(C)p.r(U)p.r(T)p.r(T)}|RNA2{r(A)p.r(G)p.r(G)p.m(U)p.r(A)p.r(G)p.r(A)p.r(U)p.r(U)p.r(C)p.r(U)p.r(C)p.m(U)p.r(G)p.r(C)p.r(U)p.r(C)p.r(G)p.r(C)p.r(T)p.r(T)}$$$RNA1{StrandType:ss}|RNA2{StrandType:as}$	90%
